Reference: US11613556B2, “Oxysterols and methods of use thereof” (Sage Therapeutics, Inc., priority 2016, dated 2023)

How the values were obtained:
Format in all cases: cell-based
[1] = biological target: glutamate-activated channels of the GRIN1/2A subtype stably transfected in HEK 293 cells (Homo sapiens (Human), UniProt Q05586+Q12879); experiment: Automated patch-clamp system (QPatch HTX), percent potentiation at 1 μM; details: HEK293, 1 μM test compound, 300 μM NMDA with 8 μM glycine, HEK 293 GRIN1/2A, read-out: GluN2A PCA % potentiation at 1 μM
Chain of glutamate-activated channels of the GRIN1/2A subtype stably transfected in HEK 293 cells (Q12879 whole entry, looked up, other chains not shown): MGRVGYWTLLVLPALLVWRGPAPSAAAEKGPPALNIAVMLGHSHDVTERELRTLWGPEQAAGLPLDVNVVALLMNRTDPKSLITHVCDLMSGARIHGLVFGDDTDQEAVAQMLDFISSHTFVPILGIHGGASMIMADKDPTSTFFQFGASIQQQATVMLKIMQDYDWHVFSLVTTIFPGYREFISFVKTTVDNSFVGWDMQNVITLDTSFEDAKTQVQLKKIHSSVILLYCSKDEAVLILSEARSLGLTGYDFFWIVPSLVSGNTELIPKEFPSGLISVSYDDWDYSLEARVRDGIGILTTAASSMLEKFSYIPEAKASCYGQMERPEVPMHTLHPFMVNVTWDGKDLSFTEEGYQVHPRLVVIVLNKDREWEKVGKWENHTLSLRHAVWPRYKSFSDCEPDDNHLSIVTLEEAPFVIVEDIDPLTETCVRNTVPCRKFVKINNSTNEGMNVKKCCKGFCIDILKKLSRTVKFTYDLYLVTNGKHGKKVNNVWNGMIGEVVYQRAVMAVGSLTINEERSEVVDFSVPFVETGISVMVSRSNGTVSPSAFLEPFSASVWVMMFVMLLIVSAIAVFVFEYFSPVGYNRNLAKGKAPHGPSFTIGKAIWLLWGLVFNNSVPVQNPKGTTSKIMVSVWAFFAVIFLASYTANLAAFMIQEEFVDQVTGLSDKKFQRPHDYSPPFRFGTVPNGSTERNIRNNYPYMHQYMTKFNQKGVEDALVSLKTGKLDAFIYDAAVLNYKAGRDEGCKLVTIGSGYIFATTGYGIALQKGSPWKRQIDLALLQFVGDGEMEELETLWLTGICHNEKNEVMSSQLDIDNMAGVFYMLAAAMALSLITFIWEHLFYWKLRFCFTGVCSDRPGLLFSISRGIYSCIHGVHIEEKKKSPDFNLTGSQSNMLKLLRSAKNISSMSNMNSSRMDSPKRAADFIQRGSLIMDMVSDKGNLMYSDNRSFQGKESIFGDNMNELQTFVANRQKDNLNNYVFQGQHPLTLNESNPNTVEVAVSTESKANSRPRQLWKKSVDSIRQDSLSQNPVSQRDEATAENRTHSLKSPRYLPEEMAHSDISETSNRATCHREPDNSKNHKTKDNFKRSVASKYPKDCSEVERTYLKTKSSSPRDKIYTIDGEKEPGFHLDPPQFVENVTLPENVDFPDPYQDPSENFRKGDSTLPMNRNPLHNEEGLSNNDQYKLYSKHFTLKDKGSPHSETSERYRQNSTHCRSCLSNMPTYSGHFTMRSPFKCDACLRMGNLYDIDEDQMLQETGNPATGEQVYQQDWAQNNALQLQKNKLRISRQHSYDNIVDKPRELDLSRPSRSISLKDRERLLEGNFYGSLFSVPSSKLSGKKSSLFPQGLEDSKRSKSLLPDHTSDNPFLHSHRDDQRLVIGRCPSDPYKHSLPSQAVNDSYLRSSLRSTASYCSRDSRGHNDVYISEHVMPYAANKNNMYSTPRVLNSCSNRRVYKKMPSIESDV
Procedure: (§1) NMDA potentiation in mammalian cells which expressed NMDA receptors was assessed using the automatic patch-clamp system can be used determine the NAM activity of compounds as described below. An whole cell patch-clamp system can be used determine the PAM activity of compounds as described below.
Automated Patch-Clamp System (OPatch HTX):
In this study, HEK 293 cells stably transfected with glutamate-activated channels of the GRIN1/2A subtype will be used together with submaximal NMDA concentrations (300 μM NMDA, co-application with 8 μM Glycine) to investigate the negative allosteric modulation of the test compounds.
In general, cells will be passaged at a confluence of about 80% to […]. For electrophysiological measurements cells will be harvested at a confluence of about 80% to 90% from sterile culture flasks containing culture complete medium. Cells will be transferred as suspension in PBS to the QPatch 16X or QPatch HTX system to the centrifuge/washer directly.
Standard Laboratory Conditions: Cells will be incubated at 37° C. in a humidified atmosphere with 5% CO2 (rel. humidity about 95%).
Culture media: The cells will be continuously maintained in and passaged in sterile culture flasks containing a 1:1 mixture of Dulbecco's modified eagle medium and nutrient mixture F-12 (D-MEM/F-12 1×, liquid, with L-Glutamine) supplemented with 10% fetal bovine serum, 1% Penicillin/Streptomycin solution, and 50 μM AP-5 blocker.
Antibiotics: The complete medium as indicated above is supplemented with 100 μg/mL hygromycin, 15 μg/mL blasticidin and 1 μg/mL puromycin.
Induction of Expression: 2.5 μg/mL tetracycline is added 24 h before start of experiments.
Dose levels are in terms of test compounds, as supplied. Vehicle will be added to achieve a stock concentration of 10 mM (storage at −10° C. to −30° C.). A further stock solutions of 1.0 mM will be prepared in DMSO. Details of stock solution usage (thawing, dose formulations) will be documented in the raw data. The time period of stock solution usage will be detailed in the report.
Test Compound Concentrations
One test concentration of 1.0 μM will be tested.
All test solutions will be prepared by diluting the stock solutions with either Mg-free bath solution only or Mg-free bath solution containing NMDA (300 μM) and glycine (8.0 μM) shortly prior to the electrophysiological experiments and kept at room temperature (19° C. to 30° C.) when in use. 0.1% DMSO will be used as vehicle.
Frequency of preparation: For each test concentration, fresh solutions of test compounds will be prepared every day.
Stability of dose formulation: All preparation times will be documented in the raw data. Any observations regarding instability of test compounds will be mentioned in the raw data.
Storage of dose formulation: On the day of experimentation dose formulations will be maintained at room temperature (19° C. to 30° C.) when in use.
For preparing the experiments and for formation of the giga-ohm-seal, the following standard bath solution will be used:
Sodium Chloride: 137 mM; Potassium Chloride: 4 mM; Calcium Chloride: 1.8 mM; Magnesium Chloride: 1 mM; HEPES: 10 mM; D-Glucose: 10 mM; Cremophor: 0.02%; pH (NaOH): 7.4
The 1× bath solution will be prepared by diluting 10× bath solution without Glucose and 100× Glucose solution with water at least every 7 days. Both stock solutions have been prepared prior to the experimental start of the present study and stored at 1° C. to 9° C. (10× bath solution) or −10° C. to −30° (100× Glucose solution). The batch number(s) of the bath solution(s) used in the experiments will be documented in the raw data. When in use, the 1× bath solution will be kept at room temperature (19° C. to 30° C.). When not in use, the 1× bath solution will be stored at 1° C. to 9° C.
After the giga-seal was formed the following Mg-free bath solution will be used:
Sodium Chloride: 137 mM; Potassium Chloride: 4 mM; Calcium Chloride; 2.8 mM; HEPES: 10 mM; D-Glucose: 10 mM; Cremophor: 0.02%; pH (NaOH): 7.4 […]

[2] = biological target: GluN2B glutamate receptors expressed in mammalian cells (Homo sapiens (Human), UniProt Q05586+Q13224); experiment: Whole-cell patch clamp of mammalian cells (Ionworks Barracuda), positive allosteric modulation, GluN2B; details: peak current amplitude, co-application with EC20 L-glutamate and 30 μM glycine; for EC50: read-out: GluN2B PCA EC50; for Emax: read-out: GluN2B PCA EMax (%)
Chain of GluN2B glutamate receptors expressed in mammalian cells (Q13224 27-1484, other chains not shown): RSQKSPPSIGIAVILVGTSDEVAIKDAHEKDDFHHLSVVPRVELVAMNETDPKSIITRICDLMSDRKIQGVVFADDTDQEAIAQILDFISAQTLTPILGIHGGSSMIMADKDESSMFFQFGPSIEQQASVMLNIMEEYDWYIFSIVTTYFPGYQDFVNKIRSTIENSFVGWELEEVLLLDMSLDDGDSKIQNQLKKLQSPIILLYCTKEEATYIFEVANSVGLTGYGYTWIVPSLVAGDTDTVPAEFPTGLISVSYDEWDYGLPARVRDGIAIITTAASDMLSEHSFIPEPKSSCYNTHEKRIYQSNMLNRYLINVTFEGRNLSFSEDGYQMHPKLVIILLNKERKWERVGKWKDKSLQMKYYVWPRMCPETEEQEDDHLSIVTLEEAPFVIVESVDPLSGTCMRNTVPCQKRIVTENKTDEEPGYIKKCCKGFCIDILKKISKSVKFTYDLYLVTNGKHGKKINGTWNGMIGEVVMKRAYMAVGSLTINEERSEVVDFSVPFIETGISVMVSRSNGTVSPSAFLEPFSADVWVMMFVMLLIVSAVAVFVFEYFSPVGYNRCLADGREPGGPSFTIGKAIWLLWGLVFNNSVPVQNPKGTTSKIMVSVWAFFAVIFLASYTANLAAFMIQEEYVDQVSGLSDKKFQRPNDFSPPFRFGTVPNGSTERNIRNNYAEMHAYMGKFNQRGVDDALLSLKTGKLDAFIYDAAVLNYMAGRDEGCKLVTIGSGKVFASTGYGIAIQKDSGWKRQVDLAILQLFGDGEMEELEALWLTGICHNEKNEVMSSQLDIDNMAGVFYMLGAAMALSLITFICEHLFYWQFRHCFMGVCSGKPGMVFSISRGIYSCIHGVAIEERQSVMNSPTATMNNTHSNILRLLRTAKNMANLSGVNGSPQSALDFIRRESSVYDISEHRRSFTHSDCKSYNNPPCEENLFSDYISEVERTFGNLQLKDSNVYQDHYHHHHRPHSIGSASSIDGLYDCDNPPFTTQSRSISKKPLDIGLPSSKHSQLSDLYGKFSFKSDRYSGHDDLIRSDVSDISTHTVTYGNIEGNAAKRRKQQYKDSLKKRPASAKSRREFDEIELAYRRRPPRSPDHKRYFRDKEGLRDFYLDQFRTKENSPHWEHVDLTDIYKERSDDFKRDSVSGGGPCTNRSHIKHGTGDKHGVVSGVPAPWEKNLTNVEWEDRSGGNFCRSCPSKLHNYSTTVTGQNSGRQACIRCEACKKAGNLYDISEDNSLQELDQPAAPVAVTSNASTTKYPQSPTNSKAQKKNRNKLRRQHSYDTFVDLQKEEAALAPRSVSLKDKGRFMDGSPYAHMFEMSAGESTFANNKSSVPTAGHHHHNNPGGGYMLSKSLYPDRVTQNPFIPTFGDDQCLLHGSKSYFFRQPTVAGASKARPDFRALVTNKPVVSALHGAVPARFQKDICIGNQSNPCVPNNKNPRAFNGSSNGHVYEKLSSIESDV
Procedure: as §1
(§2) The measurements were performed using Ion Works Barracuda platform following this procedure:
(§3) Electrophysiological Procedures: • a) Intracellular solution (mM): 50 mM CsCl, 90 mM CsF, 2 mM MgCl2, 5 mM EGTA, 10 mM HEPES. Adjust to pH 7.2 with CsOH. • b) Extracellular solution, HB-PS (composition in mM): NaCl, 137; KCl, 1.0; CaCl2, 5; HEPES, 10; Glucose, 10; pH adjusted to 7.4 with NaOH (refrigerated until use). • c) Holding potential: −70 mV, potential during agonist/PAM application: −40 mV.
(§4) Recording Procedure: • a) Extracellular buffer will be loaded into the PPC plate wells (11 μL per well). Cell suspension will be pipetted into the wells (9 μL per well) of the PPC planar electrode. • b) Whole-cell recording configuration will be established via patch perforation with membrane currents recorded by on-board patch clamp amplifiers. • c) Two recordings (scans) will be performed. First, during pre-application of test article alone (duration of pre-application—5 min) and second, during test articles and agonist (EC20 L-glutamate and 30 μM glycine) co-application to detect positive modulatory effects of the test article.
(§5) Test Article Administration: The first pre-application will consist of the addition of 20 μL of 2× concentrated test article solution and, second, of 20 μL of 1× concentrated test article and agonist at 10 μL/s (2 second total application time).
(§6) Potentiating Effect of Positive Allosteric Modulators (PAM) on the Channel
(§7) The maximal amplitude of the evoked currents are measured and defined as Peak Current Amplitude (PCA).

[3] = biological target: GluN1/GluN2A glutamate receptors (human GRIN1/GRIN2A) expressed in HEK293 cells (Homo sapiens (Human), UniProt Q05586+Q12879); experiment: Whole-cell patch clamp of mammalian cells (Ionworks Barracuda), positive allosteric modulation, GluN1/GluN2A; details: for Emax: peak current amplitude, co-application with EC20 L-glutamate and 30 μM glycine, HEK293, read-out: GluN2A PCA EMax (%)
Chain of GluN1/GluN2A glutamate receptors (human GRIN1/GRIN2A) expressed in HEK293 cells (Q12879 whole entry, looked up, other chains not shown): as the sequence (Q12879 whole entry, looked up, other chains not shown) above
Procedure: as §1, §2, §3, §4, §5, §6, §7

CC[C@]1(O)CC[C@@]2(C)[C@@H](CC[C@@H]3[C@@H]2CC[C@]2(C)[C@@H]([C@H](C)[C@H](O)c4ccccc4)CC[C@@H]32)C1 [Compound 19, (3S,5S,8R,9S,10S,13S,14S,17R)-3-ethyl-17-((1S,2S)-1-hydroxy-1-phenylpropan-2-yl)-10,13-dimethylhexadecahydro-1H-cyclopenta[a]phenanthren-3-ol]
activation at 1 µM [1]: -40 to -10%

CC[C@]1(O)CC[C@@]2(C)C(=CC[C@H]3[C@@H]4CC[C@H]([C@H](C)[C@H](O)C(F)(F)F)[C@@]4(C)CC[C@@H]32)C1 [Compound 81, (3S,8S,9S,10R,13S,14S,17R)-3-ethyl-10,13-dimethyl-17-((2S,3S)-4,4,4-trifluoro-3-hydroxybutan-2-yl)-2,3,4,7,8,9,10,11,12,13,14,15,16,17-tetradecahydro-1H-cyclopenta[a]phenanthren-3-ol]
activation at 1 µM [1]: -40 to -10%

CC[C@]1(O)CC[C@@]2(C)[C@@H](CC[C@@H]3[C@@H]2CC[C@]2(C)[C@@H]([C@H](C)[C@@H](O)C(F)(F)F)CC[C@@H]32)C1 [Compound 16, (3S,5S,8R,9S,10S,13S,14S,17R)-3-ethyl-10,13-dimethyl-17-((2S,3R)-4,4,4-trifluoro-3-hydroxybutan-2-yl)hexadecahydro-1H-cyclopenta[a]phenanthren-3-ol]
activation at 1 µM [1]: -40 to -10%

C[C@@H]([C@H]1CC[C@H]2[C@@H]3CC=C4C[C@](O)(C(F)(F)F)CC[C@]4(C)[C@H]3CC[C@]12C)[C@H](O)C(F)(F)F [Compound 1, (3S,8S,9S,10R,13S,14S,17R)-10,13-dimethyl-17-((2S,3S)-4,4,4-trifluoro-3-hydroxybutan-2-yl)-3-(trifluoromethyl)-2,3,4,7,8,9,10,11,12,13,14,15,16,17-tetradecahydro-1H-cyclopenta[a]phenanthren-3-ol]
activation at 1 µM [1]: -40 to -10%

COC[C@]1(O)CC[C@@]2(C)C(=CC[C@H]3[C@@H]4CC[C@H]([C@H](C)[C@H](O)C(F)(F)F)[C@@]4(C)CC[C@@H]32)C1 [Compound 39, (3S,8S,9S,10R,13S,14S,17R)-3-(methoxymethyl)-10,13-dimethyl-17-((2S,3S)-4,4,4-trifluoro-3-hydroxybutan-2-yl)-2,3,4,7,8,9,10,11,12,13,14,15,16,17-tetradecahydro-1H-cyclopenta[a]phenanthren-3-ol]
activation at 1 µM [1]: -40 to -10%

CC[C@]1(O)CC[C@@]2(C)[C@@H](CC[C@@H]3[C@@H]2CC[C@]2(C)[C@@H]([C@H](C)[C@@H](O)c4ccccc4)CC[C@@H]32)C1 [Compound 55, (3S,5S,8R,9S,10S,13S,14S,17R)-3-ethyl-17-((1R,2S)-1-hydroxy-1-phenylpropan-2-yl)-10,13-dimethylhexadecahydro-1H-cyclopenta[a]phenanthren-3-ol]
activation at 1 µM [1]: -40 to -10%

CC(C)CC[C@@H](O)[C@@H](C)[C@H]1CC[C@H]2[C@@H]3CC[C@H]4C[C@@](C)(O)CC[C@@H]4[C@H]3CC[C@]12C [Compound 88, (3S,5S,8R,9R,10S,13S,14S,17R)-17-((2S,3R)-3-hydroxy-6-methylheptan-2-yl)-3,13-dimethylhexadecahydro-1H-cyclopenta[a]phenanthren-3-ol]
activation at 1 µM [1]: -40 to -10%

C[C@@H]([C@H]1CC[C@H]2[C@@H]3CC[C@@H]4C[C@@](C)(O)CC[C@]4(C)[C@H]3CC[C@]12C)[C@H](O)C(F)(F)F [Compound 97, (3S,5R,8R,9S,10S,13S,14S,17R)-3,10,13-trimethyl-17-((2S,3S)-4,4,4-trifluoro-3-hydroxybutan-2-yl)hexadecahydro-1H-cyclopenta[a]phenanthren-3-ol]
activation at 1 µM [1]: -40 to -10%

CC[C@]1(O)CC[C@@]2(C)[C@H](CC[C@@H]3[C@@H]2CC[C@]2(C)[C@@H]([C@H](C)[C@H](O)C(F)(F)F)CC[C@@H]32)C1 [Compound 56, (3S,5R,8R,9S,10S,13S,14S,17R)-3-ethyl-10,13-dimethyl-17-((2S,3S)-4,4,4-trifluoro-3-hydroxybutan-2-yl)hexadecahydro-1H-cyclopenta[a]phenanthren-3-ol]
activation at 1 µM [1]: < -40%

C[C@H]([C@@H](O)C(F)(F)F)[C@H]1CC[C@H]2[C@@H]3CC=C4C[C@](O)(C(F)(F)F)CC[C@]4(C)[C@H]3CC[C@]12C [Compound 53, (3S,8S,9S,10R,13S,14S,17R)-10,13-dimethyl-17-((2S,3R)-4,4,4-trifluoro-3-hydroxybutan-2-yl)-3-(trifluoromethyl)-2,3,4,7,8,9,10,11,12,13,14,15,16,17-tetradecahydro-1H-cyclopenta[a]phenanthren-3-ol]
activation at 1 µM [1]: -40 to -10%

CC(C)CC[C@@H](O)[C@@H](C)[C@H]1CC[C@H]2[C@@H]3CC[C@@H]4C[C@@](C)(O)CC[C@]4(C)[C@H]3CC[C@]12C [Compound 36, (3S,5R,8R,9S,10S,13S,14S,17R)-17-((2S,3R)-3-hydroxy-6-methylheptan-2-yl)-3,10,13-trimethylhexadecahydro-1H-cyclopenta[a]phenanthren-3-ol]
EC50 [2]: > 1 µM
Emax [2]: < 100%
EC50 [3]: > 1 µM
Emax [3]: < 100%

CC[C@]1(O)CC[C@H]2[C@H](CC[C@@H]3[C@@H]2CC[C@]2(C)[C@@H]([C@H](C)[C@@H](O)CCC(C)C)CC[C@@H]32)C1 [Compound 82, (3S,5R,8R,9R,10S,13S,14S,17R)-3-ethyl-17-((2S,3S)-3-hydroxy-6-methylheptan-2-yl)-13-methylhexadecahydro-1H-cyclopenta[a]phenanthren-3-ol]
EC50 [2]: > 1 µM
Emax [2]: < 100%
EC50 [3]: > 1 µM
Emax [3]: < 100%
